# Laboratory results taken from US4197310A, “Thiophenepropionitriles” (American Cyanamid Company, priority 1979, dated 1980).
# What was measured:
# [1] = test system: Adjuvant Induced Arthritis in Rats; experiment: Adjuvant-induced arthritis in the rat; assay type: in vivo, rat (Royal Hart, Wistar strain)
# Procedure: (B) Adjuvant-induced arthritis in the rat […] Groups of three Royal Hart, Wistar strain rats weighing 200±10 g. each were injected intradermally in the right hind paw with Freund's adjuvant (dried human tubercle bacilli in a mineral oil vehicle) at a dose of 2 mg./kg. of body weight. The test compounds were administered orally in a 1.5% starch vehicle at various doses once daily on days 0 to 13 post challenge. Control rats were treated in a similar manner, but given only starch vehicle. On the 14th and 21st day post challenge the diameter of the injected paw was measured by micrometer caliper. The volume of inflamed paws were estimated from these measurements and the effects of each compound are expressed as percent inhibition of swelling as compared to controls. Table II records the results of these tests conducted with representative compounds of this invention and known anti-inflammatory agents. The active compounds of this invention suppress the progression of the arthritis and associated joint deterioration.
# [2] = test system: Carrageenin-Induced Edema; experiment: Carrageenin-induced edema in the rat; assay type: in vivo, rat (Royal Hart, Wistar strain); settings: oral gavage, 5 hours after drug, 4 hours after carrageenin, dose not given, * p = <.05 by t test
# Procedure: (A) Carrageenin-induced edema in the rat
# In determining the acute anti-inflammatory activity of the cis-2-[2(or 3)-thenoyl]-3-hydroxy-2-alkenenitriles of the present invention, Royal Hart, Wistar strain rats, ranging in weight from 80 to 90 grams were used. The rats were fasted overnight prior to dosing but had free access to water. The test compounds were administered in aqueous suspension, by gavage, in a volume of 1.7 ml. per 50 grams of rat [corresponds to hydration volume used by Winter, et al., Proc. Soc. […] The phlogistic agent used was carrageenin prepared as a sterile 1% suspension in 0.9% aqueous sodium chloride for routine testing. A volume of 0.05 ml. was injected through a 26 gauge needle into the plantar tissue of the right hind paw. Measurements were made 5 hours after drug administration (4 hours after carrageenin challenge). Volumes of both the normal and carrageenin inflammed feet were determined. The difference between the two measurements is considered to be the increased edema due to the carrageenin administration. Results are expressed as a C/T efficacy ratio (edema of control animals/edema of treated animals).
# [3] = oral 50 mg./kg. daily days 0 to 13, * (where printed) p = <.05 by t test
# [4] = oral 50 mg./kg. daily days 0 to 13, no asterisk
# [5] = oral 25 mg./kg. daily days 0 to 13, * p = <.05 by t test
SMILES,"% Inhibition of Swelling, Day 14 [1, 3] [%]","% Inhibition of Swelling, Day 21 [1, 4] [%]",C/T Ratio (edema of control animals/edema of treated animals) [2],"% Inhibition of Swelling, Day 14 [1, 5] [%]","% Inhibition of Swelling, Day 21 [1, 5] [%]"
C/C(O)=C(\C#N)C(=O)c1cccs1 [Cis-2-(2-thenoyl)-3-hydroxycrotononitrile],42,6,2.04,–,–
C/C(O)=C(\C#N)C(=O)c1ccsc1 [Cis-2-(3-thenoyl)-3-hydroxycrotononitrile],38,19,2.42,–,–
C/C(O)=C(\C#N)C(=O)c1ccc(Cl)s1 [Cis-2-(5-chloro-2-thenoyl)-3-hydroxycrotononitrile],–,–,–,49,31
